pIC50: −log10 of the molar value.
What was measured:
[1] = target: T1, PBP3 from Pseudomonas aeruginosa (PAO1) (Pseudomonas aeruginosa, UniProt G3XD46); test: Bocillin-FL fluorescence polarization competition binding, P. aeruginosa PBP3; settings: Binding affinity to P. aeruginosa PBP3; fluorescence polarization competition binding assay using Bocillin-FL; read-out: P. aeruginosa PBP3 Potency
T1 construct: made in house
Outline: (§1)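 Purified PBP was preincubated with inhibitor (E. coli PBP3 1.5 μM, 30 min; P. aeruginosa PBP3 0.75 μM, A. baumannii PBP3 0.2 μM and PBP1a 1 μM, 15 min), then Bocillin-FL (0.1 μM; 0.05 μM for PBP1a) added and FP read up to 60 min. EC50 = 50% loss of bound probe.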

[2] = target: T2, PBP3 from Acinetobacter baumannii (ATCC 19606) (Acinetobacter baumannii, UniProt A0ABX6CK25); test: Bocillin-FL fluorescence polarization competition binding, A. baumannii PBP3; settings: fluorescence polarization competition binding assay using Bocillin-FL; read-out: A. baumannii PBP3 Potency
T2 sequence (A0ABX6CK25 64-610): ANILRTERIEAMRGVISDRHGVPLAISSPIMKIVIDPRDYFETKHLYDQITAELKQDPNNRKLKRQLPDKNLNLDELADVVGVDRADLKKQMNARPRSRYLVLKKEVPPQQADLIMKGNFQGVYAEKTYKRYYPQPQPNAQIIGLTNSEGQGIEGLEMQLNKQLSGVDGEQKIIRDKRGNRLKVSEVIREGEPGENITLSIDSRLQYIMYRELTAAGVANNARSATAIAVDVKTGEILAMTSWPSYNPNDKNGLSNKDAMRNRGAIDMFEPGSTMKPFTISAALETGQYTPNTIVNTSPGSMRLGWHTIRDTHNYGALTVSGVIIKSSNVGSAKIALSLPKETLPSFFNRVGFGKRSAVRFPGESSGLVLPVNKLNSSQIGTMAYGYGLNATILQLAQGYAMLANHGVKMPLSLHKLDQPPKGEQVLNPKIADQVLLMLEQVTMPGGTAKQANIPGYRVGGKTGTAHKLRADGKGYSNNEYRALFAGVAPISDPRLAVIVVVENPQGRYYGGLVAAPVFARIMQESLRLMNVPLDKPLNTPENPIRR
Outline: as §1

A. baumannii ATCC 17978 = test: microbe, parasite or virus in culture; format: cell-based; settings: Acinetobacter baumannii, ATCC17978, read-out: MIC, A. baumannii ATCC 17978
A. baumannii ATCC 19606 = test: microbe, parasite or virus in culture; format: cell-based; settings: Acinetobacter baumannii, ATCC19606, read-out: MIC, A. baumannii ATCC 19606
P. aeruginosa ATCC 35151 = test: microbe, parasite or virus in culture; format: cell-based; settings: Pseudomonas aeruginosa, ATCC35151, read-out: Minimum inhibitory concentration, P. aeruginosa ATCC 35151
P. aeruginosa CDC-0095 = test: microbe, parasite or virus in culture; format: cell-based; settings: Pseudomonas aeruginosa, CDC0095, read-out: Minimum inhibitory concentration, P. aeruginosa CDC-0095
A. baumannii CDC-0033 = test: microbe, parasite or virus in culture; format: cell-based; settings: Acinetobacter baumannii, CDC0033, read-out: MIC, A. baumannii CDC-0033
A. baumannii CDC-0036 = test: microbe, parasite or virus in culture; format: cell-based; settings: Acinetobacter baumannii, CDC0036, read-out: MIC, A. baumannii CDC-0036
[3] = system: B. thailandensis ATCC 700388; test: microbe, parasite or virus in culture; format: cell-based; settings: Burkholderia thailandensis, ATCC700388, read-out: Minimum inhibitory concentration (MIC), B. thailandensis ATCC 700388
P. aeruginosa CDC-0110 = test: microbe, parasite or virus in culture; format: cell-based; settings: Pseudomonas aeruginosa, CDC0110, read-out: Minimum inhibitory concentration, P. aeruginosa CDC-0110

T1 sequence (G3XD46 whole entry): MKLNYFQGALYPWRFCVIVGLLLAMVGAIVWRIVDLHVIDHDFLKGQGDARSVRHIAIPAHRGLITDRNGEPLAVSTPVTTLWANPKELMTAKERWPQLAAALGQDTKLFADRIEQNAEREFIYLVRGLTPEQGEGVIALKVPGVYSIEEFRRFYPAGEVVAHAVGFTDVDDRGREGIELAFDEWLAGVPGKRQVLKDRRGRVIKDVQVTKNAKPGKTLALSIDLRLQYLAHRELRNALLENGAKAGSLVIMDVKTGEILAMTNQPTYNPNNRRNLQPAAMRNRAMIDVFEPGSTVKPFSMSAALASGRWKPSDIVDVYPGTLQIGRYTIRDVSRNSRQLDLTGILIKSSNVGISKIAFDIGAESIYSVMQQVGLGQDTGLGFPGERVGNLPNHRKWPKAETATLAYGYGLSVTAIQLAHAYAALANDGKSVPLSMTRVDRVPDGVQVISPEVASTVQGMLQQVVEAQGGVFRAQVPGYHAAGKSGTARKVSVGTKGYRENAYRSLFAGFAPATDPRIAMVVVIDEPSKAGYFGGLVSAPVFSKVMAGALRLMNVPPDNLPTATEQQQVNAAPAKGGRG

O=C(O)c1c(F)ccc2c1OB(O)[C@@H](NC(=O)[C@H](NC(=O)N1CCN(C3CCN(C(=O)c4cc(O)ccc4Cl)CC3)C1=O)c1cc(F)c(O)c(O)c1Cl)C2 (single isomer, unassigned) [Example 434]
< 1 µg/mL: MIC (A. baumannii ATCC 17978) | MIC (A. baumannii ATCC 19606) | MIC (P. aeruginosa ATCC 35151) | MIC (P. aeruginosa CDC-0095) | MIC (A. baumannii CDC-0033) | MIC (A. baumannii CDC-0036) | MIC [3] | MIC (P. aeruginosa CDC-0110)
> 5.00: pIC50 [1] | pIC50 [2]

O=C(O)c1c(F)ccc2c1OB(O)[C@@H](NC(=O)[C@H](NC(=O)N1CCN(C3CCN(C(=O)c4c(F)ccc(O)c4F)CC3)C1=O)c1cc(F)c(O)c(O)c1Cl)C2 (single isomer, unassigned) [Example 439]
< 1 µg/mL: MIC (A. baumannii ATCC 17978) | MIC (A. baumannii ATCC 19606) | MIC (P. aeruginosa ATCC 35151) | MIC (A. baumannii CDC-0033) | MIC (A. baumannii CDC-0036) | MIC [3] | MIC (P. aeruginosa CDC-0110)
2 to 4 µg/mL: MIC (P. aeruginosa CDC-0095)
> 5.00: pIC50 [1] | pIC50 [2]

O=C(NCCS(=O)(=O)N1CCN(C(=O)N[C@@H](C(=O)N[C@H]2Cc3ccc(F)c(C(=O)O)c3OB2O)c2ccc(P(=O)(O)O)cc2)C1=O)c1ccc(O)c(O)c1Cl (single isomer, unassigned) [Example 168]
< 1 µg/mL: MIC (A. baumannii ATCC 17978) | MIC (A. baumannii ATCC 19606) | MIC [3]
> 5.00: pIC50 [1] | pIC50 [2]
32 to 64 µg/mL: MIC (A. baumannii CDC-0033) | MIC (P. aeruginosa CDC-0110)
2 to 4 µg/mL: MIC (P. aeruginosa ATCC 35151) | MIC (A. baumannii CDC-0036)
8 to 16 µg/mL: MIC (P. aeruginosa CDC-0095)

O=C(O)c1c(F)ccc2c1OB(O)[C@@H](NC(=O)[C@H](NC(=O)N1CCN(C3CCN(C(=O)Nc4cccc(O)c4F)CC3)C1=O)c1cc(F)c(O)c(O)c1Cl)C2 (single isomer, unassigned) [Example 446]
> 5.00: pIC50 [1] | pIC50 [2]
< 1 µg/mL: MIC (A. baumannii ATCC 17978) | MIC (A. baumannii ATCC 19606) | MIC (P. aeruginosa ATCC 35151) | MIC (P. aeruginosa CDC-0095) | MIC (A. baumannii CDC-0033) | MIC (A. baumannii CDC-0036) | MIC [3] | MIC (P. aeruginosa CDC-0110)

O=C(O)c1c(F)ccc2c1OB(O)[C@@H](NC(=O)[C@H](NC(=O)N1CCN(C3CCN(C(=O)Nc4cc(O)ccc4F)CC3)C1=O)c1cc(F)c(O)c(O)c1Cl)C2 (single isomer, unassigned) [Example 451]
> 5.00: pIC50 [1] | pIC50 [2]
< 1 µg/mL: MIC (A. baumannii ATCC 17978) | MIC (A. baumannii ATCC 19606) | MIC (P. aeruginosa ATCC 35151) | MIC (P. aeruginosa CDC-0095) | MIC (A. baumannii CDC-0033) | MIC (A. baumannii CDC-0036) | MIC [3] | MIC (P. aeruginosa CDC-0110)

O=C(O)c1c(F)ccc2c1OB(O)[C@@H](NC(=O)[C@H](NC(=O)N1CCN(C3CCN(C(=O)Nc4cc(O)cc(O)c4)CC3)C1=O)c1cc(F)c(O)c(O)c1Cl)C2 [Example 456, (R)-3-((R)-2-(2-chloro-5-fluoro-3,4-dihydroxyphenyl)-2-(3-(1-((3,5-dihydroxyphenyl)carbamoyl)piperidin-4-yl)-2-oxoimidazolidine-1-carboxamido)acetamido)-7-fluoro-2-hydroxy-3,4-dihydro-2H-benzo[e][1,2]oxaborinine-8-carboxylic acid]
> 5.00: pIC50 [1] | pIC50 [2]
< 1 µg/mL: MIC (A. baumannii ATCC 17978) | MIC (A. baumannii ATCC 19606) | MIC (P. aeruginosa ATCC 35151) | MIC (P. aeruginosa CDC-0095) | MIC (A. baumannii CDC-0033) | MIC (A. baumannii CDC-0036) | MIC [3] | MIC (P. aeruginosa CDC-0110)

O=C(O)c1c(F)ccc2c1OB(O)[C@@H](NC(=O)C(NC(=O)N1CCN(C3CCN(C(=O)Nc4cc(O)ccc4Cl)CC3)C(=O)C1=O)c1cc(F)c(O)c(O)c1Cl)C2 (stereo partly drawn) [Example 483, (3R)-3-(2-(2-chloro-5-fluoro-3,4-dihydroxyphenyl)-2-(4-(1-((2-chloro-5-hydroxyphenyl)carbamoyl)piperidin-4-yl)-2,3-dioxopiperazine-1-carboxamido)acetamido)-7-fluoro-2-hydroxy-3,4-dihydro-2H-benzo[e][1,2]oxaborinine-8-carboxylic acid]
< 1 µg/mL: MIC (A. baumannii ATCC 17978) | MIC (A. baumannii ATCC 19606) | MIC (P. aeruginosa ATCC 35151)
2 to 4 µg/mL: MIC (P. aeruginosa CDC-0095) | MIC (A. baumannii CDC-0036) | MIC (P. aeruginosa CDC-0110)
32 to 64 µg/mL: MIC [3]
8 to 16 µg/mL: MIC (A. baumannii CDC-0033)
> 5.00: pIC50 [1] | pIC50 [2]

O=C(O)c1c(F)ccc2c1OB(O)[C@@H](NC(=O)[C@H](NC(=O)N1CCN(C3CCN(C(=O)Nc4cc(O)cc(F)c4)CC3)C1=O)c1cc(F)c(O)c(O)c1Cl)C2 (single isomer, unassigned) [Example 450]
< 1 µg/mL: MIC (A. baumannii ATCC 17978) | MIC (A. baumannii ATCC 19606) | MIC (P. aeruginosa ATCC 35151) | MIC (P. aeruginosa CDC-0095) | MIC (A. baumannii CDC-0033) | MIC (A. baumannii CDC-0036) | MIC [3] | MIC (P. aeruginosa CDC-0110)
> 5.00: pIC50 [1] | pIC50 [2]

O=C(O)c1c(F)ccc2c1OB(O)[C@@H](NC(=O)[C@H](NC(=O)N1CCN(C3CCN(C(=O)Nc4cc(O)ccc4Cl)CC3)C1=O)c1cc(F)c(O)c(O)c1Cl)C2 (single isomer, unassigned) [Example 448]
< 1 µg/mL: MIC (A. baumannii ATCC 17978) | MIC (A. baumannii ATCC 19606) | MIC (P. aeruginosa ATCC 35151) | MIC (P. aeruginosa CDC-0095) | MIC (A. baumannii CDC-0033) | MIC (A. baumannii CDC-0036) | MIC [3] | MIC (P. aeruginosa CDC-0110)
> 5.00: pIC50 [1] | pIC50 [2]

O=C(O)c1c(F)ccc2c1OB(O)[C@@H](NC(=O)[C@H](NC(=O)N1CCN(Cc3ccc(O)c(O)c3Cl)C(=O)C1=O)c1ccc(P(=O)(O)O)c(F)c1F)C2 [Example 166, (R)-3-((R)-2-(4-(2-chloro-3,4-dihydroxybenzyl)-2,3-dioxopiperazine-1-carboxamido)-2-(2,3-difluoro-4-phosphonophenyl)acetamido)-7-fluoro-2-hydroxy-3,4-dihydro-2H-benzo[e][1,2]oxaborinine-8-carboxylic acid]
> 5.00: pIC50 [1] | pIC50 [2]
< 1 µg/mL: MIC (A. baumannii ATCC 17978) | MIC (A. baumannii ATCC 19606) | MIC (P. aeruginosa ATCC 35151) | MIC (P. aeruginosa CDC-0095) | MIC (A. baumannii CDC-0033) | MIC (A. baumannii CDC-0036) | MIC [3] | MIC (P. aeruginosa CDC-0110)

O=C(O)c1c(F)ccc2c1OB(O)[C@@H](NC(=O)[C@H](NC(=O)N1CCN(C3CCN(C(=O)Nc4cccc(O)c4)CC3)C1=O)c1cc(F)c(O)c(O)c1Cl)C2 [Example 445, (R)-3-((R)-2-(2-chloro-5-fluoro-3,4-dihydroxyphenyl)-2-(3-(1-((3-hydroxyphenyl)carbamoyl)piperidin-4-yl)-2-oxoimidazolidine-1-carboxamido)acetamido)-7-fluoro-2-hydroxy-3,4-dihydro-2H-benzo[e][1,2]oxaborinine-8-carboxylic acid]
2 to 4 µg/mL: MIC (A. baumannii CDC-0033)
> 5.00: pIC50 [1] | pIC50 [2]
< 1 µg/mL: MIC (A. baumannii ATCC 17978) | MIC (A. baumannii ATCC 19606) | MIC (P. aeruginosa ATCC 35151) | MIC (P. aeruginosa CDC-0095) | MIC (A. baumannii CDC-0036) | MIC [3] | MIC (P. aeruginosa CDC-0110)
